Measurements: PubChem BioAssay (NCI)
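Test compounds were applied to cells in 96-well plates for 48 hours at 5 doses. GI50 is the concentration that inhibits growth by half. TGI: concentration producing complete growth inhibition.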

Tests used:
Assay in all cases: inhibition of tumour cell growth, NCI panel, 48 h
[1] = test system: HOP-92 NSCLC
[2] = test system: K-562 leukemia
[3] = test system: SF-539 CNS
[4] = test system: HT29 colon
[5] = test system: HCC-2998 colon
[6] = test system: MCF7 breast
[7] = test system: OVCAR-3 ovarian
[8] = test system: NCI-H226 lung
[9] = test system: SF-295 CNS
[10] = test system: LOX IMVI melanoma

Compound | TGI [1] [µM] | TGI [2] [µM] | TGI [3] [µM] | TGI [4] [µM] | TGI [5] [µM] | TGI [6] [µM] | TGI [7] [µM] | TGI [8] [µM] | TGI [9] [µM] | TGI [10] [µM] | GI50 [3] [µM]
O=c1[nH]nc(-c2ccccc2)n1/N=C/c1c[nH]c2ccccc12 | > 100 | > 100 | > 100 | > 100 | > 100 | > 100 | > 100 | > 100 | > 100 | > 100 | 
COc1cc(OC)c2c(O)c3c(cc2c1)CC(C)(C)CC3=O | > 100 | > 100 | > 100 | > 100 | > 100 | > 100 | > 100 | > 100 | > 100 | > 100 | 
CC(C)[C@@H]1CC[C@@H](C)C[C@H]1OC(=O)/C=C1/C2C=CC(O2)C1C(=O)O[C@@H]1C[C@H](C)CC[C@H]1C(C)C (stereo partly specified) | > 100 | > 100 | > 100 | > 100 | > 100 | > 100 | > 100 | > 100 | > 100 | > 100 | 
CN(C)c1nc(NC23CC4CC(CC(C4)C2)C3)nc(N(C)C)n1 | 82.2 | 7.84 | > 79.6 | > 100 | 97.1 | > 63.3 | > 76.2 | > 77.6 | > 33.3 | 17.8 | 
COC1=C(N=[N+]=[N-])C(=O)c2ncccc2C1=O | 2.56 | 15.2 | 30.5 | 33 | 31 | 3.41 | 15.5 | 35.9 | 29 | 7.78 | 
NC(=Nc1ccc(O)cc1)S(=O)(=O)O | > 100 | > 100 | > 100 | > 100 | > 100 | > 100 | > 100 | > 100 | > 100 | > 100 | 
CCOc1cc(NC(C)=O)ccc1C(=O)NN1C(=O)C(Oc2ccccc2)C1c1ccccc1 (stereo unspecified) | > 100 | > 100 | > 100 | > 100 | > 100 | > 100 | > 100 | > 100 | > 100 | > 100 | 
CN(C)c1ccc(/C=C2\N=C(NN)NC2=O)cc1 | > 100 | > 100 | 96.6 | 98.9 | > 100 | > 100 | > 100 | > 100 | > 100 | > 100 | 
COC(=O)C(C)(N=Cc1ccccc1)c1ccccc1 (stereo unspecified) | > 100 | > 100 | > 100 | > 100 | > 100 | > 100 | > 100 | > 100 | > 100 | > 100 | 
O=C(Nc1nc2c(=O)[nH]cnc2s1)c1ccccc1 | > 100 | > 100 | > 100 | > 100 | > 100 | > 100 | > 100 | > 100 | > 100 | > 100 | 
NNc1nc2ccccc2c(=O)n1NC(=O)C(=O)Nc1cccc(C(F)(F)F)c1 | > 100 | > 100 | > 100 | > 100 | > 100 | > 100 | > 100 | > 100 | > 100 | > 100 | 
O=C1CSC(/C(=C\c2ccc(Cl)cc2)c2nc3ccccc3[nH]2)=N1 | 25.1 | > 100 | 2.06 | 46.5 | 17.7 | 28.7 | 20.9 | 18.2 | 22.8 | 32.4 | 
N#Cc1c(SCc2ccccc2)nc(-c2ccccc2)[nH]c1=S | 85.7 | > 100 | 56.6 | 60.1 | 39.8 | 71 | 36.3 | 70.3 | 55.1 | 63.9 | 
Clc1nc(Cl)c(Cl)c(Cl)n1 | 56.4 | 28 | 47.9 | 52.6 | 35.5 | 37.9 | 31.7 | 42.8 | 36.9 | 27.3 | 
CC1(C)N=C(C(N)=O)c2ncn(CCO)c2N1 | > 100 | > 100 | > 100 | > 100 | > 100 | > 100 | > 100 | > 100 | > 100 | > 100 | 
Cc1cc(CNC(=O)OCc2ccccc2)c(C)c2c1Oc1ccccc1O2 | 26.1 | > 100 | 47.9 | > 68.8 | > 100 | > 100 | > 100 | > 93.6 | > 100 | > 100 | 19.5
CNc1ccc(-c2nc3cc(C)ccc3o2)cc1 | > 100 | > 100 | > 100 | > 100 | > 100 | > 100 | > 100 | > 100 | > 100 | > 100 | 
